Test results taken from US7985755B2, “2,4-diaminoquinazolines for spinal muscular atrophy” (Families of Spinal Muscular Atrophy, priority 2006, dated 2011).
Where two headings read alike, the source gives them in different places.

What was measured:
[1] = molecular target: T1, Human, recombinant dihydrofolate reductase (Homo sapiens, UniProt P00374); experiment: Human DHFR assay; format: biochemical
T1 construct: purchased Sigma D6566
T1 sequence (P00374 1-187): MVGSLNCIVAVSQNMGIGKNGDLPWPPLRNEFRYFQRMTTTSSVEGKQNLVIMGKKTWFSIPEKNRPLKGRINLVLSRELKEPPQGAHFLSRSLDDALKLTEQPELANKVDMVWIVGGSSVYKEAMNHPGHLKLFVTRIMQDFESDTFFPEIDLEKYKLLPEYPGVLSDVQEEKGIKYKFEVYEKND
Description: The assay is an adaptation for 96-well plate format from Appleman et al. (Appleman, J R; Howell, E E; Kraut, J; Kuhl, M and Blakley, R L (1988) J. Biol. Chem. 263, 9187-9198). Human, recombinant dihydrofolate reductase (Sigma, D6566) was incubated along with test compounds ([…]) and NADPH (Sigma, N-7505) in 96-well plates. After a 10 min. pre-incubation at room temperature, dihydrofolic acid (Sigma, D7006) was added and the kinetic traces at 340 nm measured on a Spectra Max 190 plate reader at room temperature. Reaction rates were determined from the slopes of the linear portions of the progress curves. The final assay conditions were 0.014 units DHFR, 300 μM NADPH, 30 μM Dihydrofolic acid, 50 mM TRIS, pH 7.6, 100 mM NaCl and 1.25% DMSO. Each compound was measured in duplicates on every assay plate. Each assay plate contained 12 positive controls (DMSO only) and 12 negative controls (no dihydrofolic acid). All data was percent normalized with respect to controls and presented as percent inhibition. Inhibition data was analyzed using Prism and fit to a standard 4-parameter logistic equation to calculate IC50 values.

[2] = tested on: SMN2 promoter; experiment: SMN2 promoter assay in NSC-34 cells (β-lactamase reporter); format: cell-based, mouse
Description: All compounds were screened using an in vitro based SMN2 promoter assay. We used NSC-34 cells, a hybrid cell line between mouse spinal cord cells and mouse neuroblastoma cells. NSC-34 cells harbor an expression plasmid containing a 3.4 kb promoter fragment of the SMN2 gene driving β-lactamase expression.
[…] […] CCF2-AM diffuses across the plasma membrane and is converted into an active β-lactamase substrate by cytoplasmic esterase. […] The fold induction is proportional to the extent of β-lactamase produced and in turn proportional to SMN2 promoter activation for a given compound relative to vehicle (DMSO) control. […] These values are used to rank activities of the compounds and derive structure activity relationship.

[3] = Mus musculus, Table 5, SMN2 promoter driving β-lactamase, read-out: Promoter Assay EC50
[4] = Mus musculus, Table 1, SMN2 promoter driving β-lactamase, 12 point dose curve, read-out: Promoter Assay EC50
[5] = Mus musculus, Table 3, SMN2 promoter driving β-lactamase, read-out: Promoter Assay EC50
[6] = Table 1, SMN2 promoter driving β-lactamase, 12 point dose curve, read-out: Promoter Assay EC50
[7] = Mus musculus, Table 2, SMN2 promoter driving β-lactamase, read-out: Promoter Assay EC50
[8] = Table 3, SMN2 promoter driving β-lactamase, read-out: Promoter Assay EC50
[9] = Mus musculus, Table 4, SMN2 promoter driving β-lactamase, read-out: Promoter Assay EC50 for 2391.003C(P)

Nc1nc(N)c2c(OCCN3CCN(S(=O)(=O)c4ccc(Cl)c(Cl)c4)CC3)cccc2n1 [Example-211, 5-{2-[4-(3,4-Dichloro-benzenesulfonyl)-piperazin-1-yl]-ethoxy}-quinazoline-2,4-diamine]
IC50 ([1]; Table 5, read-out: hDHFR IC50): < 20 µM
EC50 [2, 3]: < 1 µM

CN1CCC(COc2cccc3nc(N)nc(N)c23)CC1 [Example-117]
IC50 ([1]; Table 1, read-out: hDHFR IC50): > 100 µM
EC50 [2, 4]: < 1 µM

Nc1nc(N)c2c(OCC3CCN(Cc4c(F)cccc4Cl)CC3)cccc2n1 [Example-161, 5-[1-(2-Chloro-6-fluorobenzyl)piperidin-4-ylmethoxy]quinazoline-2,4-diamine]
IC50 ([1]; Table 3, read-out: hDHFR IC50): > 100 µM
EC50 [2, 5]: < 1 µM

Nc1nc(N)c2c(OCC3CCN(S(=O)(=O)c4ccccc4)CC3)cccc2n1 [Example-097]
IC50 ([1]; Table 1, read-out: hDHFR IC50): < 20 µM
EC50 [2, 6]: < 1 µM

Nc1nc(N)c2c(OCC3CCN(C(=O)CC4CC5CCC4C5)CC3)cccc2n1 (stereo not shown) [Example-053]
IC50 ([1]; Table 1, read-out: hDHFR IC50): > 100 µM
EC50 [2, 6]: < 1 µM

Cc1cccc(CN2CCC(COc3cccc4nc(N)nc(N)c34)CC2)c1 [Example-008, 5-[1-(3-Methylbenzyl)piperidin-4-ylmethoxy]quinazoline-2,4-diamine]
IC50 ([1]; Table 1, read-out: hDHFR IC50): > 100 µM
EC50 [2, 4]: < 1 µM

Nc1nc(N)c2c(OCC3CCN(c4ccccc4F)CC3)cccc2n1 [Examplc-155, 5-[1-(2-Fluorophenyl)piperidin-4-ylmethoxy]quinazoline-2,4-diamine]
IC50 ([1]; Table 3, read-out: hDHFR IC50): < 20 µM
EC50 [2, 5]: < 1 µM

Nc1nc(N)c2c(OCC3CCN(Cc4cccc(F)c4F)CC3)cccc2n1 [Example-012, 5-[1-(2,3-Difluorobenzyl)piperidin-4-ylmethoxy]quinazoline-2,4-diamine]
IC50 ([1]; Table 1, read-out: hDHFR IC50): 20 to 100 µM
EC50 [2, 4]: < 1 µM

Nc1nc(N)c2c(OCC3CCN(C(=O)N4CCCC4)CC3)cccc2n1 [Example-126]
IC50 ([1]; Table 1, read-out: hDHFR IC50): > 100 µM
EC50 [2, 6]: < 1 µM

COc1ccccc1CC1CCC(COc2cccc3nc(N)nc(N)c23)CC1 (stereo not shown) [Example-168, 5-[4-(2-Methoxybenzyl)-cyclohexylmethoxy]quinazoline-2,4-diamine]
IC50 ([1]; Table 2, read-out: hDHFR IC50): < 20 µM
EC50 [2, 7]: < 1 µM

Nc1nc(N)c2c(OCC3CCN(CC(F)(F)F)CC3)cccc2n1 [Example-165]
IC50 ([1]; Table 3, read-out: hDHFR IC50): > 100 µM
EC50 [2, 8]: < 1 µM

Nc1nc(N)c2c(OCCN3CCN(C(=O)c4ccccc4F)CC3)cccc2n1 [Example-215, {4-[2-(2,4-Diamino-quinazolin-5-yloxy)-ethyl]-piperazin-1-yl}-(2-fluoro-phenyl)-methanone]
IC50 ([1]; Table 5, read-out: hDHFR IC50): < 20 µM
EC50 [2, 3]: < 1 µM

Nc1nc(N)c2c(OCC3CCN(Cc4cccc(Cl)c4)CC3)cccc2n1 [Example-002, 5-[1-(3-chlorobenzyl)-piperidin-4-ylmethoxy]-quinazoline-2,4-diamine]
IC50 ([1]; Table 1, read-out: hDHFR IC50): < 20 µM
EC50 [2, 4]: < 1 µM

Nc1nc(N)c2c(OCC3CCN(C(=O)c4cccc5ccccc45)CC3)cccc2n1 [Example-058]
IC50 ([1]; Table 1, read-out: hDHFR IC50): 20 to 100 µM
EC50 [2, 4]: < 1 µM

Nc1nc(N)c2c(OCC3CCN(Cc4ccc(Cl)c(Cl)c4)CC3)cccc2n1 [Example-038]
IC50 ([1]; Table 1, read-out: hDHFR IC50): < 20 µM

Nc1nc(N)c2c(OCCN3CCN(Cc4ccccc4F)CC3)cccc2n1 [Example-216, 5-{2-[4-(2-Fluoro-benzyl)-piperazin-1-yl]-ethoxy}-quinazoline-2,4-diamine]
IC50 ([1]; Table 5, read-out: hDHFR IC50): 20 to 100 µM
EC50 [2, 3]: < 1 µM

Nc1nc(N)c2c(OCC3CCC(Cc4ccccc4F)CC3)cccc2n1 (stereo not shown) [Example-154, 5-[4-(2-Fluorobenzyl)cyclohexylmethoxy]quinazoline-2,4-diamine]
IC50 ([1]; Table 2, read-out: hDHFR IC50): 20 to 100 µM
EC50 [2, 7]: < 1 µM

Nc1nc(N)c2c(OCC3CCN(CC4CCC4)CC3)cccc2n1 [Example-121]
IC50 ([1]; Table 1, read-out: hDHFR IC50): > 100 µM
EC50 [2, 4]: < 1 µM

Nc1nc(N)c2c(OCCN3CCN(C(=O)c4ccc(F)cc4F)CC3)cccc2n1 [Example-207, {4-[2-(2,4-Diamino-quinazolin-5-yloxy)-ethyl]-piperazin-1-yl}-(2,4-difluoro-phenyl)-methanone]
IC50 ([1]; Table 5, read-out: hDHFR IC50): 20 to 100 µM
EC50 [2, 3]: < 1 µM

Nc1nc(N)c2c(OC[C@H]3CC[C@H](Cc4cccc(Cl)c4)CC3)cccc2n1 [Example-153, 5-[4-(3-Chlorobenzyl)cyclohexylmethoxy]quinazoline-2,4-diamine]
IC50 ([1]; Table 2, read-out: hDHFR IC50): < 20 µM
EC50 [2, 7]: < 1 µM

CC(C)(C)OC(=O)N1CCN(CCOc2cccc3nc(N)nc(N)c23)CC1 [Examplc-205, 4-[2-(2,4-Diamino-quinazolin-5-yloxy)-ethyl]-piperazine-1-carboxylic Acid tert-butyl Ester]
IC50 ([1]; Table 5, read-out: hDHFR IC50): < 20 µM
EC50 [2, 3]: < 1 µM

CN(C)c1cccc(C(=O)N2CCC(COc3cccc4nc(N)nc(N)c34)CC2)c1 [Example-115]
IC50 ([1]; Table 1, read-out: hDHFR IC50): > 100 µM
EC50 [2, 4]: < 1 µM

Cc1cccc(CN2CCC(COc3cccc4nc(N)nc(N)c34)CC2)c1F [Example-092]
IC50 ([1]; Table 1, read-out: hDHFR IC50): > 100 µM
EC50 [2, 4]: < 1 µM

Nc1nc(N)c2c(OC[C@H]3CC[C@H](Cc4ccccc4Cl)CC3)cccc2n1 [Example-164, 5-[4-(2-Chlorobenzyl)cyclohexylmethoxy]quinazoline-2,4-diamine]
IC50 ([1]; Table 2, read-out: hDHFR IC50): > 100 µM
EC50 [2, 7]: < 1 µM

Nc1nc(N)c2c(OCC3CCN(CC(F)F)CC3)cccc2n1 [Example-159]
IC50 ([1]; Table 3, read-out: hDHFR IC50): > 100 µM
EC50 [2, 8]: < 1 µM

Nc1nc(N)c2c(OCC3CCN(C(=O)c4cccc(F)c4F)CC3)cccc2n1 [Example-024, [4-(2,4-Diaminoquinazolin-5-yloxymethyl)piperidin-1-yl]-(2,3-difluorophenyl)methanone]
IC50 ([1]; Table 1, read-out: hDHFR IC50): 20 to 100 µM
EC50 [2, 4]: < 1 µM

Nc1nc(N)c2c(OCC3CCN(C(=O)N4CCOCC4)CC3)cccc2n1 [Example-127]
IC50 ([1]; Table 1, read-out: hDHFR IC50): > 100 µM
EC50 [2, 6]: < 1 µM

Nc1nc(N)c2c(OCC3CCN(Cc4c(Cl)cccc4Cl)CC3)cccc2n1 [Example-142]
IC50 ([1]; Table 1, read-out: hDHFR IC50): > 100 µM
EC50 [2, 4]: < 1 µM

CCC(C)C(=O)N1CCC(COc2cccc3nc(N)nc(N)c23)CC1 (stereo not shown) [Example-068]
IC50 ([1]; Table 1, read-out: hDHFR IC50): > 100 µM
EC50 [2, 4]: < 1 µM

Nc1nc(N)c2c(OCC3CCN(Cc4ccccc4F)CC3)cccc2n1 [Example-001]
IC50 ([1]; Table 1, read-out: hDHFR IC50): 20 to 100 µM

CCc1ccc(C(=O)N2CCC(COc3cccc4nc(N)nc(N)c34)CC2)cc1 [Example-064]
EC50 [2, 6]: < 1 µM

Nc1nc(N)c2c(OCC3CCN(c4ccccc4Cl)CC3)cccc2n1 [Example-163, 5-[1-(2-Chlorophenyl)piperidin-4-ylmethoxy]quinazoline-2,4-diamine]
EC50 [2, 5]: < 1 µM

Nc1nc(N)c2c(OCC3CCN(S(=O)(=O)c4ccc(Cl)s4)CC3)cccc2n1 [Example-074]
EC50 [2, 6]: < 1 µM

CC(C)c1ccc(S(=O)(=O)N2CCC(COc3cccc4nc(N)nc(N)c34)CC2)cc1 [Example-089]
EC50 [2, 6]: < 1 µM

Nc1nc(N)c2c(N3CCNCC3)cccc2n1 [Example-220, 5-piperazin-1-ylquinazoline-2,4-diamine]
EC50 [2, 9]: < 1 µM

Nc1nc(N)c2c(N3CCN(Cc4ccc(F)cc4F)CC3)cccc2n1 [Example-177, 5-[4-(2,4-Difluoro-benzyl)-piperazin-1-yl]-quinazoline-2,4-diamine]
EC50 [2, 9]: < 1 µM

Nc1nc(N)c2c(OCC3CCN(C(=O)c4c(Cl)cccc4Cl)CC3)cccc2n1 [Example-108]
EC50 [2, 6]: < 1 µM

COc1ccc(Br)cc1S(=O)(=O)N1CCC(COc2cccc3nc(N)nc(N)c23)CC1 [Example-083]
EC50 [2, 6]: < 1 µM

Nc1nc(N)c2c(OCC3CCN(Cc4cccc(F)c4)CC3)cccc2n1 [Example-132]
EC50 [2, 6]: < 1 µM
